Data reported in patent publication US20170313808A1, “BIOACTIVE POLYMERIC LIQUID FORMULATIONS OF ABSORBABLE, SEGMENTED APLIPHATIC POLYURETHANE COMPOSITIONS” (priority 2008, published 2017).

These compounds were tested on SKOV3 (assay: Testing with ovarian cancer cell lines (SKOV3)). Settings: ovarian cancer cell line SKOV3.
Type: cell-based

Row | SMILES | Additional Uses and Properties
1 | CO[C@@]12[C@H](COC(N)=O)C3=C(C(=O)C(C)=C(N)C3=O)N1C[C@@H]1N[C@@H]12 [Mitomycin] | Antineoplastic, as per testing
2 | OC(Cn1cncn1)(Cn1cncn1)c1ccc(F)cc1F [Fluconazole] | Antineoplastic (as per testing
3 | Clc1ccc(COC(Cn2ccnc2)c2ccc(Cl)cc2Cl)c(Cl)c1 (stereo not drawn) [Miconazole] | Antineoplastic (as per testing
4 | Cc1oncc1C(=O)Nc1ccc(C(F)(F)F)cc1 [Leflunomide] | Antineoplastic, as per testing

What follows are compounds tested on S aureous (assay: Antibacterial testing with S aureous). Settings: not given.
Type: cell-based

Row | SMILES | Additional Uses and Properties
5 | O=c1[nH]cc(F)c(=O)[nH]1 [5-Fluorouracil] | Antibacterial as per testing
6 | CC(=O)O[C@H]1C(=O)[C@@]2(C)[C@H]([C@H](OC(=O)c3ccccc3)[C@]3(O)C[C@H](OC(=O)[C@H](O)[C@@H](NC(=O)c4ccccc4)c4ccccc4)C(C)=C1C3(C)C)[C@]1(OC(C)=O)CO[C@@H]1C[C@@H]2O [Paclitaxel] | Antibacterial as per testing
